Measured values reported in patent publication US12012411B2, “Viral replication inhibitors” (Katholieke Universiteit Leuven, priority 2011, dated 2024).
Like-named read-outs stand apart in the source and are kept apart here.

Key:
[1] = test system: DENV-2 NGC; assay: Antiviral activity against DENV-2 NGC in Vero-B cells (viral RNA load by RT-qPCR); assay type: cell-based, Dengue virus; conditions: DENV-2 in Vero-B cells, inhibition of viral RNA replication by 50% (Table 3)
[2] = test system: DENV-4 strain Dak HD 34 460; assay: Antiviral activity against DENV-4 in Vero-B cells (viral RNA load by RT-qPCR); assay type: cell-based, Dengue virus
[3] = in vitro; conditions: African green monkey, uninfected quiescent Vero-B cells
[4] = test system: DENV-1 Djibouti strain D1/H/IMTSSA/98/606; assay: Antiviral activity against DENV-1 in Vero-B cells (viral RNA load by RT-qPCR); assay type: cell-based, Dengue virus
[5] = Cytotoxicity in A549 cells (MTS/PMS); assay type: cell-based; conditions: human; A549 cells (Table 6)
Description: A similar protocol was used to assess cytotoxicity in A549 cells with the difference that cells were seeded at 2×10^4 cells/well.

[6] = test system: DENV-3 strain H87 prototype; assay: Antiviral activity against DENV-3 in Vero-B cells (viral RNA load by RT-qPCR); assay type: cell-based, Dengue virus
[7] = test system: DENV-2 NGC; assay: Antiviral activity against DENV-2 NGC in A549 cells (viral RNA load by RT-qPCR); assay type: cell-based; conditions: Dengue virus, DENV2; DENV-2 in A549 cells (Table 6)
[8] = test system: uninfected quiescent Vero-B cells; assay: Cytotoxic assay in uninfected quiescent Vero-B cells (MTS/PMS); conditions: 4 days (Table 3)

| Compound | EC50 ([1]; Dengue virus, DENV2, Vero B) | EC50 ([2]; Dengue virus, DENV4, Vero B) | CC50 at 4 days [3] | EC50 ([4]; Dengue virus, DENV1, Vero B) | CC50 at 4 days [5] | EC50 ([6]; Dengue virus, DENV3, Vero B) | EC50 [7] | EC50 [1] | EC50 [2] | EC50 [4] | CC50 [8] | EC50 [6] |
| --- | --- | --- | --- | --- | --- | --- | --- | --- | --- | --- | --- | --- |
| COc1cc(CO)cc(NC(C(=O)c2c[nH]c3ccccc23)c2ccc(C)nc2)c1 (stereo not shown) [CPD-320] | 70 nM | 9440 nM | > 124000 nM | 960 nM | > 124000 nM | 1170 nM | 6 nM | – | – | – | – | – |
| COc1cc(NC(C(=O)c2nn(C)c3ccccc23)c2ccc(F)cc2)cc(OC)c1 (stereo not shown) [CPD-340] | 20 nM | 6390 nM | > 119000 nM | 180 nM | > 119000 nM | 240 nM | 27 nM | – | – | – | – | – |
| COc1cc(NC(C(=O)c2c[nH]c3ccccc23)c2ccc(C)nc2)cc(OC)c1 (stereo not shown) [CPD-346] | 10 nM | 1270 nM | 54000 nM | – | 60000 nM | 40 nM | 8 nM | – | – | – | – | – |
| COc1cccc(NC(C(=O)c2c[nH]c3ccccc23)c2cc3ccccn3n2)c1 (single isomer, unassigned) [CPD-325] | – | – | – | – | – | – | – | 90 nM | 7160 nM | 870 nM | 68000 nM | 1840 nM |
| COc1cccc(NC(C(=O)c2c[nH]c3ccccc23)c2cc3ccccn3n2)c1 (stereo not shown) [CPD-083] | 30 nM | 2520 nM | – | 540 nM | – | 710 nM | – | – | – | – | 26000 nM | – |
| COc1cc(NC(C(=O)c2cn(C)c3ccccc23)c2ccccc2)cc(OC)c1 (stereo not shown) [CPD-338] | 10 nM | 1820 nM | > 124000 nM | 350 nM | > 124000 nM | 250 nM | 26 nM | – | – | – | – | – |
| COc1cccc(NC(C(=O)c2c[nH]c3ccccc23)c2ccsc2)c1 (stereo not shown) [CPD-027] | 130 nM | 3700 nM | – | 2100 nM | – | 9900 nM | – | – | – | – | 15000 nM | – |
| COc1cc(NC(C(=O)c2c[nH]c3ccccc23)c2ccccc2)cc(OCCO)c1 (stereo not shown) [CPD-255] | 40 nM | 3360 nM | 63000 nM | 750 nM | 59000 nM | 1660 nM | 29 nM | – | – | – | – | – |
| COc1cccc(NC(C(=O)c2c[nH]c3cc(OC)ccc23)c2ccccc2)c1 (stereo not shown) [CPD-077] | 40 nM | 4270 nM | – | 1420 nM | – | 2070 nM | – | – | – | – | 13000 nM | – |
| COc1cc(NC(C(=O)c2c[nH]c3ccccc23)c2ccccc2)cc(OC)c1 (single isomer, unassigned) [CPD-327] | – | – | – | – | – | – | – | 350 nM | 2250 nM | 1420 nM | 11000 nM | 4610 nM |
| COc1cc(NC(C(=O)c2c[nH]c3ccccc23)c2ccc(F)cc2)cc(OC)c1 (stereo not shown) [CPD-235] | 4 nM | 3020 nM | – | 90 nM | – | 270 nM | – | – | – | – | 13000 nM | – |
| COc1cc(NC(C(=O)c2cn(C)c3ccccc23)c2cccnc2)cc(OC)c1 (stereo not shown) [CPD-360] | 40 nM | 5780 nM | > 124000 nM | – | > 124000 nM | – | 27 nM | – | – | – | – | – |
| CCOc1cc(NC(C(=O)c2c[nH]c3ccccc23)c2ccccc2)cc(OC)c1 (stereo not shown) [CPD-254] | 20 nM | 1150 nM | – | 670 nM | – | 800 nM | – | – | – | – | 13000 nM | – |
| COc1cc(CO)cc(NC(C(=O)c2c[nH]c3ccc(F)cc23)c2cccnc2)c1 (stereo not shown) [CPD-334] | 70 nM | 16800 nM | 122000 nM | 1290 nM | 85000 nM | 810 nM | 24 nM | – | – | – | – | – |
| COc1cccc(NC(C(=O)c2c[nH]c3ccccc23)c2ccc(F)cc2)c1 (stereo not shown) [CPD-149] | 30 nM | 5720 nM | – | 2880 nM | – | 4010 nM | – | – | – | – | 14000 nM | – |
| COc1cc(NC(C(=O)c2c[nH]c3ccccc23)c2cc3ccccn3n2)cc(OC)c1 (stereo not shown) [CPD-293] | 1 nM | 1150 nM | 65000 nM | 60 nM | > 117000 nM | 40 nM | 3 nM | – | – | – | – | – |
| COc1cccc(NC(C(=O)c2c[nH]c3ccccc23)c2ccc(C)nc2)c1 (stereo not shown) [CPD-226] | 70 nM | 8640 nM | – | 920 nM | – | 810 nM | – | – | – | – | 73000 nM | – |
| COc1cc(NC(C(=O)c2c[nH]c3ccccc23)c2cc3ccccn3n2)cc(OCCO)c1 (stereo not shown) [CPD-336] | 10 nM | 5770 nM | > 123000 nM | 260 nM | > 123000 nM | 350 nM | 5 nM | – | – | – | – | – |
| COc1cc(NC(C(=O)c2c[nH]c3ccccc23)c2ccccc2)cc(OC)c1 (single isomer, unassigned) [CPD-326] | – | 1890 nM | – | – | – | – | – | 1 nM | – | 50 nM | 13000 nM | 90 nM |
| COc1cccc(NC(C(=O)c2c[nH]c3cccc(F)c23)c2ccccc2)c1 (stereo not shown) [CPD-230] | 120 nM | 2560 nM | – | 350 nM | – | 3530 nM | – | – | – | – | 21000 nM | – |
| COc1cc(NC(C(=O)c2c[nH]c3ccccc23)c2ccc(F)cc2)cc(OCCO)c1 (stereo not shown) [CPD-350] | 10 nM | 3110 nM | – | – | 63000 nM | 280 nM | 8 nM | – | – | – | 46000 nM | – |
| COc1cccc(NC(C(=O)c2c[nH]c3ccccc23)c2ccc(C)cc2)c1 (stereo not shown) [CPD-139] | 20 nM | 3810 nM | – | 650 nM | – | 460 nM | – | – | – | – | 20000 nM | – |
| COc1cc(CO)cc(NC(C(=O)c2c[nH]c3ccccc23)c2ccccc2)c1 (stereo not shown) [CPD-262] | 60 nM | 8490 nM | – | 2330 nM | – | 6730 nM | – | – | – | – | 71000 nM | – |
| COc1cccc(NC(C(=O)c2c[nH]c3ccc(F)cc23)c2ccccc2)c1 (stereo not shown) [CPD-119] | 30 nM | 2910 nM | – | 690 nM | – | 1740 nM | – | – | – | – | 13000 nM | – |
| COc1cc(NC(C(=O)c2c[nH]c3ccccc23)c2cnc(OC)cn2)cc(OC)c1 (stereo not shown) [CPD-294] | 20 nM | 7210 nM | 41000 nM | 230 nM | 61000 nM | 670 nM | 15 nM | – | – | – | – | – |
| COc1cncc(NC(C(=O)c2c[nH]c3ccccc23)c2ccccc2)c1 (single isomer, unassigned) [CPD-300] | – | – | – | – | – | – | – | 1290 nM | 4130 nM | 5290 nM | 50000 nM | 21100 nM |
| COc1cccc(NC(C(=O)c2c[nH]c3cccc(Cl)c23)c2ccccc2)c1 (stereo not shown) [CPD-053] | 20 nM | 7110 nM | – | 1640 nM | – | 11200 nM | – | – | – | – | 18000 nM | – |
| COc1cccc(NC(C(=O)c2c[nH]c3ccccc23)c2cc3ccccn3n2)c1 (single isomer, unassigned) [CPD-324] | – | 5320 nM | – | – | – | – | – | 10 nM | – | 270 nM | 30000 nM | 190 nM |
| COc1cccc(NC(C(=O)c2c[nH]c3ccccc23)c2ccc(C#N)cc2)c1 (stereo not shown) [CPD-036] | 40 nM | 5850 nM | – | 2430 nM | – | 3420 nM | – | – | – | – | 14000 nM | – |
